From ChEMBL document CHEMBL5727793, “Covalent inhibitors of PAD4” (2020) come the findings set out here.

A short description of this test: RapidFire Mass Spectrometry (RFMS) Activity Assay: Compounds were solubilized in 100% DMSO to achieve 100 mM final compound concentration. Compound stock solutions were stored at RT. A series of dilutions were prepared in DMSO and mixed 8 times with 20 μL mixing volume. […] After 5 mins, 10 μL of 100 μM of substrate in buffer (100 mM Tris-HCl pH 7.6, 2 mM DTT, 2 mM CaCl2) was added and the reaction incubated for 60 mins at 37° C. The enzymatic reaction was quenched by addition of 40 μl of 5% TCA in ACN (1.7% TCA final concentration) stop solution. Arginine containing substrate and citrulline containing product (+1 Da mass shift) were subjected to solid phase extraction on Agilent RapidFire (RF) 300 system and detected on a coupled, triple quadrupole Agilent 6460 QQQ mass spectrometry (MS) device under application of multiple reaction monitoring (MRM) for quantitation.

In the case of `CN(C)C/C=C/C(=O)N[C@H]1CCN(C(=O)c2ccc3c(c2)nc(-c2cc4cccnc4n2CC2CC2)n3C)C[C@H]1N`, the IC50 was > 10 µM.
Regarding `CN(C)C/C=C/C(=O)N[C@@H]1C[C@H](N)CN(C(=O)c2ccc3c(c2)nc(-c2cc4cccnc4n2CC2CC2)n3C)C1`, the IC50 is > 10 µM.
